This note sets out measurements from patent US7288532B1, “Modified chitosan polymers and enzymatic methods for the production thereof” (The University of Maryland Biotechnology Institute, priority 1998, dated 2007).

In the experiment the test system is tyrosinase. Briefly: tyrosinase activity under mildly acidic conditions by consumption of dissolved oxygen. Type of experiment: biochemical, mushroom. Particulars: chlorogenic acid 6 mM, 0.16% chitosan, pH about 5.8 to 6.0, tyrosinase 60 U/mL. How it is done:
The reactivity of tyrosinase under mildly acidic conditions was studied to verify that the enzyme remains active in acidic solution. The progress of the reaction was measured by monitoring the consumption of dissolved oxygen, using the method described in Mayer et al., “Assay of catechol oxidase: A critical comparison of methods,” Phytochem., 5:783-789 (1966). The dissolved oxygen probe used in these measurements was obtained from Microelectrodes, Londonderry, N.H. Chlorogenic acid (6 mM) was added to a 0.16% chitosan solution, and the pH was adjusted to about 5.8 to 6.0. Tyrosinase (60 U/mL) was added, the reaction vessel sealed, and the dissolved oxygen content measured as a function of time. Two control solutions were prepared and monitored in the same manner, one containing only tyrosinase and chitosan (no phenolic compound), and one containing only chlorogenic acid and chitosan (no enzyme). The results of these measurements are shown in FIG. 1, with the two control solutions labeled “tyrosinase only” and “chlorogenic acid only,” respectively. […] In the solution containing both tyrosinase and chlorogenic acid, however, the oxygen level dropped rapidly in the first few minutes, reaching essentially zero after about 10 to 12 minutes.

For `O=C(/C=C/c1ccc(O)c(O)c1)O[C@@H]1C[C@](O)(C(=O)O)C[C@@H](O)[C@H]1O` [chlorogenic acid], the “time for dissolved oxygen level to reach essentially zero” value was 10 to 12 min.
